Reference: US20260274832A1, “COMPOUNDS AND THEIR USE IN TREATING CANCER” (ASTRAZENECA AB, priority 2023, published 2026)

Key:
[1] = molecular target: T1, AR (AR-full length) in LNCaP cells (Homo sapiens, UniProt P10275, T878A); experiment: LNCaP Androgen Receptor Imaging Assay (immunofluorescence of endogenous nuclear AR); type: cell-based; conditions: 24 h incubation; for DC50: concentration giving 50% of maximum degradation of AR per curve fit, single experiment or average of two or more; for Dmax: LNCaP; for Dmax / LNCaP AR Degradation Dmax: maximum degradation observed, normalized as % of positive control (prior art AR PROTAC at 3 μM)
T1 construct: the prostate cancer cell line LNCaP (expressing AR-full length); endogenous in cells; host or cells: LNCaP
Procedure: This cell-based imaging assay uses immuno-fluorescence to measure endogenous nuclear AR staining in the prostate cancer cell line LNCaP (expressing AR-full length). The purpose of the assay is to identify compounds that regulate AR protein level according to the protocol laid out in the steps below.
(§1) All work was performed in a sterile tissue culture hood up to the point of cell fixation. LNCaP cells were cultured at 6-8×10^6 per T175 flask and split every 3-4 days. Medium: RPMI (R7638, VWR Sigma) containing 10% FCS and 1% glutamine. Cells were plated in black wall transparent bottom plates at a density of 12,000 cells (Cedex™ Cell counter, Beckmann & Coulter), 40 μL per well, using a Multidrop (ThermoFisher).
(§2) Cells were dosed with test compound diluted in DMSO using an Echo 555/655™ (Labcyte) and the final concentration of DMSO in the well was 0.3%. A neutral control (DMSO) and a positive AR degrader control at 3 μM (a prior art AR PROTAC) were included. The Echo uses acoustic technology to perform direct microplate-to-microplate transfers of DMSO compound solutions to assay plates. The system can be programmed to transfer volumes as low as 2.5 nL in multiple increments between microplates and in so doing generates a serial dilution of compound in the assay plate which is then back-filled to normalise the DMSO concentration across the dilution range. Compounds were dispensed as a 12 point dose response with indicated concentrations. The plates were incubated at 37° C./5% CO2 for 24 h and then fixed and stained as below. 40 μL of 8% paraformaldehyde solution (v/v) in phosphate buffered saline (PBS) was added on top of the media already in the well using a Multidrop to fix plates giving a final concentration of 4% PFA (v/v) for 20-30 minutes (keep in fume hood to minimise PFA exposure). After 20-30 mins, the plates were washed with 3×PBS using a BioTek washer in a fume hood. A shake out of remaining volume in the well was performed to ensure best removal of remaining PBS. At this plates could be stored in PBS after washing for at least 3 days at 4° C., if so, PBS was removed by the BioTek before continuing with the next step.
(§3) The cells were incubated with a Mouse monoclonal Anti-AR antibody AR441 (DAKO M3562) (1:1000), diluted in modified blocking buffer (PBS+1% BSA+0.1% TritonX); 15 μL/well for 2 h at RT. The plates were then washed with 3×PBS using a BioTek washer. A shake out of remaining volume in the well was performed to ensure best removal of remaining PBS. Cells were then incubated with Goat anti-mouse secondary antibody 488 (Invitrogen A11001) (1:500) and nuclear stain, DRAQ5 (Abcam Ab108410) (1:2000) diluted in modified blocking buffer for 45 mins at room temperature 15 μL/well. Plates are then washed with 3×PBS using a BioTek washer, without final aspiration, and sealed with black plate seals. Plates could be stored after staining for three days at 4° C. before read if required.
(§4) Plates are read using a Cellomics Cellinsight to measure the Androgen Receptor level in each well. The data is exported into Genedata to perform curve fitting analysis. All data are normalized as % of positive control and the BellFit method automatically determines the correct fit method based on the presence of hook effect, choosing the BellFit when there is a hook and HillFit when there is no hook. Down-regulation of AR is expressed as a DC50 value and determined by calculation of the concentration of compound that is required to give 50% of maximum degradation of AR as per the curve fit for that compound. The maximum degradation observed for each compound is expressed as Dmax. The AR degradation data for compounds is shown in the table below and may be a result from a single experiment or an average of two or more experiments.

[2] = molecular target: T2, AR (L702H) in LNCaP cells (Homo sapiens, UniProt P10275, L702H/T878A); experiment: LNCaP Androgen Receptor L702H Imaging Assay (LNCaP cells engineered by CRISPR/Cas9); type: cell-based; conditions: LNCaP cells with AR L702H mutation, 24 h incubation; for DC50: concentration giving 50% of maximum degradation of AR (L702H) per curve fit; for Dmax: LNCaP; for Dmax / LNCaP AR (L702H) Degradation Dmax: maximum degradation observed, normalized as % of positive control
T2 construct: engineered to introduce the mutation L702H into the AR gene using CRISPR/Cas9; endogenous in cells; host or cells: LNCaP cells edited by CRISPR/Cas9 at the AR gene
Procedure: as §1, §2, §3, §4
At this stage, anti-androgen therapy is largely ineffective due to AR amplification, overexpression or point mutation. One of the point mutations observed in patient populations is L702H in the AR Ligand Binding Domain. LNCAP cells have been engineered to introduce the mutation L702H into the AR gene using CRISPR/Cas9. The previously described imaging-based AR assay will monitor nuclear AR (L702H) levels in these cells to identify compounds that regulate AR (L702H). […]

T2 sequence (P10275 whole entry L702H/T878A): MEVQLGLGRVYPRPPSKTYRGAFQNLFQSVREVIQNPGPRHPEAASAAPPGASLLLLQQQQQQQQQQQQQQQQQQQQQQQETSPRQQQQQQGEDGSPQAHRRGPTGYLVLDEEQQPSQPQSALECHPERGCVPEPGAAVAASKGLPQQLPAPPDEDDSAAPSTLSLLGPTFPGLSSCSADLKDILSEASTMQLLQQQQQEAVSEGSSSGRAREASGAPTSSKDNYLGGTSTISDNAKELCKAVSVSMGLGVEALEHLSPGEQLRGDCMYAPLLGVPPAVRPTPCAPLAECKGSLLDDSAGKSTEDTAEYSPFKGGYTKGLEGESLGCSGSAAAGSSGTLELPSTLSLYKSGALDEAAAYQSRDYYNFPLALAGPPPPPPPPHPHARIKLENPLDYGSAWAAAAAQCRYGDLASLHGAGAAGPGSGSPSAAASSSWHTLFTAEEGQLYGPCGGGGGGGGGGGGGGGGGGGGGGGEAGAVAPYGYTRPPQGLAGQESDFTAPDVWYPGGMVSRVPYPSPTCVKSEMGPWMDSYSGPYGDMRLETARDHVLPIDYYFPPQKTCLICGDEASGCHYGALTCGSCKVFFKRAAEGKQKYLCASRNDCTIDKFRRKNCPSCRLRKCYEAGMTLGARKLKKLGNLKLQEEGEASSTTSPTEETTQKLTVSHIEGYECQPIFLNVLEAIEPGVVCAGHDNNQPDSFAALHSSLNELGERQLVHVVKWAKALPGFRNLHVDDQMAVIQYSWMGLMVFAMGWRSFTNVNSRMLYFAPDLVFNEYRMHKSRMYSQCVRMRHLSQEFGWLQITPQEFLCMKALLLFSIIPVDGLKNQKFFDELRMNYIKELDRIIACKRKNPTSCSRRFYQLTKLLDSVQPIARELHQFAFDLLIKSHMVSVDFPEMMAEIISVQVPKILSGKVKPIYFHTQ
T2 sequence (Q96SW2 whole entry partner): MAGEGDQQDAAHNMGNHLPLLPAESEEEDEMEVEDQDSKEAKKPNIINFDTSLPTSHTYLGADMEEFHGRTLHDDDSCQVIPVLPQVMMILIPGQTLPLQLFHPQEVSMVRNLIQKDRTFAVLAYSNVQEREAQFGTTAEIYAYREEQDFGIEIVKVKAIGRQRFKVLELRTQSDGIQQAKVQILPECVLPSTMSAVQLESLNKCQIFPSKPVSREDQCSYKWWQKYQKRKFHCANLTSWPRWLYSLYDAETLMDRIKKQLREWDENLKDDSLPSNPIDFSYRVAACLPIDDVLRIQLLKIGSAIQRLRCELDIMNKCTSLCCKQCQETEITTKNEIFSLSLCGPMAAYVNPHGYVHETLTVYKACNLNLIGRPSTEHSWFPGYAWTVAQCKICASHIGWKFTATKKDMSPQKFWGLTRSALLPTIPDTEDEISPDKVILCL
T1 sequence (P10275 whole entry T878A): as the sequence (P10275 whole entry L702H/T878A) above, with H702L counted along it
T1 sequence (Q96SW2 whole entry partner): as the sequence (Q96SW2 whole entry partner) above

| DC50 [1] [nM] | Dmax [1] [%] | DC50 [2] [nM] | Dmax [2] [%] | LNCaP AR Degradation Dmax [1] [%] | LNCaP AR (L702H) Degradation Dmax [2] [%] | Compound |
| --- | --- | --- | --- | --- | --- | --- |
| 7 | 98 | 12 | 102 | – | – | COc1nc(N2CCN(CC3CCN(c4ccc(C5CCN(c6ccc(Cl)c7c(C#N)c[nH]c67)CC5)cc4)CC3)CC2)cc2c1C(=O)N(C1CCC(=O)NC1=O)C2 (stereo not drawn) [Example 34, 4-Chloro-7-(4-{4-[4-({4-[2-(2,6-dioxopiperidin-3-yl)-4-methoxy-3-oxo-2,3-dihydro-1H-pyrrolo[3,4-c]pyridin-6-yl]piperazin-1-yl}methyl)piperidin-1-yl]phenyl}piperidin-1-yl)-1H-indole-3-carbonitrile] |
| 6 | 97 | 21 | 84 | – | – | N#Cc1c[nH]c2c(N3CCC(c4cnc(N5CCC(CN6CCN(c7ccc8c(c7)CN(C7CCC(=O)NC7=O)C8=O)CC6)CC5)cn4)CC3)ccc(Cl)c12 (stereo not drawn) [Example 68, 4-Chloro-7-(4-{5-[4-({4-[2-(2,6-dioxopiperidin-3-yl)-1-oxo-2,3-dihydro-1H-isoindol-5-yl]piperazin-1-yl}methyl)piperidin-1-yl]pyrazin-2-yl}piperidin-1-yl)-1H-indole-3-carbonitrile] |
| 7 | 95 | 20 | 98 | – | – | N#Cc1c[nH]c2c(N3CCC(NC(=O)c4ccc(N5CCC(CN6CCN(c7cc8c(cc7F)C(=O)N(C7CCC(=O)NC7=O)C8=O)CC6)CC5)cc4F)CC3)ccc(Cl)c12 (stereo not drawn) [Example 161, N-[1-(4-Chloro-3-cyano-1H-indol-7-yl)piperidin-4-yl]-4-[4-({4-[2-(2,6-dioxopiperidin-3-yl)-6-fluoro-1,3-dioxo-2,3-dihydro-1H-isoindol-5-yl]piperazin-1-yl}methyl)piperidin-1-yl]-2-fluorobenzamide] |
| 6 | 98 | 5 | 115 | – | – | Cn1c(C2CCN(CC3CCN(c4ccc([C@H]5CCCN(c6ccc(Cl)c7c(C#N)n[nH]c67)C5)cc4)CC3)CC2)cc2ccc(N3CCC(=O)NC3=O)cc21 [Example 132, 4-Chloro-7-[(3R)-3-{4-[4-({4-[6-(2,4-dioxo-1,3-diazinan-1-yl)-1-methyl-1H-indol-2-yl]piperidin-1-yl}methyl)piperidin-1-yl]phenyl}piperidin-1-yl]-1H-indazole-3-carbonitrile] |
| 4 | 103 | 8 | 97 | – | – | N#Cc1n[nH]c2c(N3CCC[C@@H](c4ccc(N5CCC(CN6CCN(c7ccc8c(c7)CN(C7CCC(=O)NC7=O)C8=O)CC6)CC5)cc4)C3)ccc(F)c12 (stereo partly drawn) [Example 133, 7-[(3S)-3-{4-[4-({4-[2-(2,6-Dioxopiperidin-3-yl)-1-oxo-2,3-dihydro-1H-isoindol-5-yl]piperazin-1-yl}methyl)piperidin-1-yl]phenyl}piperidin-1-yl]-4-fluoro-1H-indazole-3-carbonitrile] |
| 5 | 104 | 10 | 105 | – | – | Cn1c(C2CCN(CC3CCN(c4ccc(C(=O)NC5CCN(c6ccc(Cl)c7c(C#N)c[nH]c67)CC5)c(F)c4)CC3)CC2)cc2cc(F)c(N3CCC(=O)NC3=O)cc21 [Example 156, N-[1-(4-Chloro-3-cyano-1H-indol-7-yl)piperidin-4-yl]-4-[4-({4-[6-(2,4-dioxo-1,3-diazinan-1-yl)-5-fluoro-1-methyl-1H-indol-2-yl]piperidin-1-yl}methyl)piperidin-1-yl]-2-fluorobenzamide] |
| 4 | – | 9 | – | 95 | 95 | N#Cc1c[nH]c2c(N3CCCC(NC(=O)c4ccc(N5CCC(CN6CCN(c7ccc8c(c7)CN(C7CCC(=O)NC7=O)C8=O)CC6)CC5)cn4)C3)ccc(Cl)c12 (single isomer, unassigned) [Example 181, N-[(3S*)-1-(4-Chloro-3-cyano-1H-indol-7-yl)piperidin-3-yl]-5-[4-({4-[2-(2,6-dioxopiperidin-3-yl)-1-oxo-2,3-dihydro-1H-isoindol-5-yl]piperazin-1-yl}methyl)piperidin-1-yl]pyridine-2-carboxamide] |
| 6 | 94 | 16 | 63 | – | – | N#Cc1c[nH]c2c(N3CCC(c4ccc(N5CCC(CN6CCC(n7ccc8c(N9CCC(=O)NC9=O)cccc87)CC6)CC5)nn4)CC3)ccc(Cl)c12 [Example 63, 4-Chloro-7-(4-{6-[4-({4-[4-(2,4-dioxo-1,3-diazinan-1-yl)-1H-indol-1-yl]piperidin-1-yl}methyl)piperidin-1-yl]pyridazin-3-yl}piperidin-1-yl)-1H-indole-3-carbonitrile] |
| 93 | – | 67 | – | 85 | 75 | N#Cc1c[nH]c2c(N3CCCC(c4ccc(N5CCC(CN6CCC(n7ccc8c(N9CCC(=O)NC9=O)cccc87)CC6)CC5)nn4)C3)ccc(Cl)c12 (single isomer, unassigned) [Example 122, 4-Chloro-7-[(3S*)-3-{6-[4-({4-[4-(2,4-dioxo-1,3-diazinan-1-yl)-1H-indol-1-yl]piperidin-1-yl}methyl)piperidin-1-yl]pyridazin-3-yl}piperidin-1-yl]-1H-indole-3-carbonitrile] |
| 5 | 106 | 22 | 94 | – | – | N#Cc1n[nH]c2c(N3CCC[C@@H](c4ccc(N5CCC(CN6CCC(n7ccc8c(N9CCC(=O)NC9=O)cccc87)CC6)CC5)cc4)C3)ccc(F)c12 [Example 134, 7-[(3S)-3-{4-[4-({4-[4-(2,4-Dioxo-1,3-diazinan-1-yl)-1H-indol-1-yl]piperidin-1-yl}methyl)piperidin-1-yl]phenyl}piperidin-1-yl]-4-fluoro-1H-indazole-3-carbonitrile] |
| 27 | 100 | 38 | 102 | – | – | N#Cc1n[nH]c2c(N3CCC(c4ccc(N5CCC(CN6CCC(n7ccc8c(N9CCC(=O)NC9=O)cccc87)CC6)CC5)cc4)CC3)ccc(Cl)c12 [Example 146, 4-Chloro-7-(4-{4-[4-({4-[4-(2,4-dioxo-1,3-diazinan-1-yl)-1H-indol-1-yl]piperidin-1-yl}methyl)piperidin-1-yl]phenyl}piperidin-1-yl)-1H-indazole-3-carbonitrile] |
| > 3000 | – | – | – | – | – | N#Cc1c[nH]c2c(C3CCCN(c4ccc(N5CCC(CN6CCN(c7ccc8c(c7)CN(C7CCC(=O)NC7=O)C8=O)CC6)CC5)cc4)C3)ccc(Cl)c12 (single isomer, unassigned) [Example 94, 4-Chloro-7-[(3S*)-1-{4-[4-({4-[2-(2,6-dioxopiperidin-3-yl)-1-oxo-2,3-dihydro-1H-isoindol-5-yl]piperazin-1-yl}methyl)piperidin-1-yl]phenyl}piperidin-3-yl]-1H-indole-3-carbonitrile] |
